Reference: patent US20150258052A1, “METHODS OF USING FEXARAMINE AND AGENTS THAT INCREASE SYMPATHETIC NERVOUS SYSTEM ACTIVITY TO PROMOTE BROWNING OF WHITE ADIPOSE TISSUE” (Salk Institute for Biological Studies, priority 2014, published 2015)

Tests used:
[1] = tested on: FXR target gene expression; test: FXR target gene expression (qPCR) in intestine, liver and kidney after acute PO or IP fexaramine; format: in vivo, mice
Description: FIGS. 1A-1C are a comparative expression chart and two bar charts, respectively, illustrating increased levels of FXR target gene expression in the intestine relative to expression in the liver and kidney. 8 week-old mice were treated with vehicle or fexaramine (100 mg/kg) via oral (PO) or intraperitoneal (IP) injection for three days (FIGS. 1A-1B) or five days (FIG. 1C).
FXR target gene expression was analyzed by qPCR. Gene expression was normalized against a vehicle-treated group.
(§1) Data represent the mean±SD. Statistical analysis was performed with the Student's t test. *p<0.05, **p<0.01.
FIG. 1F is a bar chart illustrating that orally delivered Fexaramine is intestinally-restricted. Mice received vehicle or Fexaramine (100 mg/kg) via per os (PO) or intraperitoneal (IP) injection for 5 days. Expression of the FXR target gene SHP after PO or IP injection in selected tissues is shown.
Upon exploration of the in vivo effects of fexaramine (Fex) administration, it was discovered that due to ineffectual absorption, oral (PO) and intraperitoneal (IP) drug delivery produced very different effects (FIGS. 1D and 1E).

DIO mice = test: Hyperinsulinemic-euglycemic clamp and liver analysis in Fex-treated DIO mice; format: in vivo
Description: Mice were fed HFD for 14 weeks and then subjected to daily PO injection of vehicle or fexaramine (100 mg/kg) for 5 weeks with HFD. In the bar graphs, open bars are vehicle, solid bars are fexaramine, and data represent the mean±STD. Statistical analysis was performed with the Student's t test (*p<0.05, **p<0.01).
FIGS. 15I-15K are a line graph and two bar graphs showing the effect of fexaramine treatment on body weight, insulin-stimulated GDR, and fasting insulin levels. Mice were fed HFD for 14 weeks, and then administered daily oral injections of vehicle or fexaramine (100 mg/kg) for 3 weeks with HFD. The mice treated with fexaramine were initially heavier (by 2-3 grams). Three weeks after treatment, a clamp study was performed on the mice. Data represent the mean±STD. Statistical analysis was performed with the Student's t test (*p<0.05, **p<0.01).
Liver insulin resistance has been linked to obesity-induced hepatic steatosis (Cohen et al., Science 332:1519-1523, 2011). […] Furthermore, decreased serum alanine aminotransferase (ALT) levels were measured in Fex-treated mice, indicating reduced HFD-induced liver damage (FIG. 15H). Thus, in DIO mice Fex promotes hepatic insulin sensitization, reduced steatosis, improved metabolic markers, decreased ALT and enhanced BAT activity.

FXR-null mice = test: Fexaramine in HFD-fed FXR-null mice; format: in vivo; conditions: 100 mg/kg 5 weeks
Description: as §1

[2] = tested on: white adipose tissue (WAT); test: Inflammation, lipolysis and browning of white adipose tissue in Fex-treated DIO mice; format: in vivo
Description: Mice were fed on HFD for 14 weeks and subsequently subjected to daily PO injection of vehicle or fexaramine (100 mg/kg) for 5 weeks with HFD. In the bar graphs, open bars are vehicle, solid bars of fexaramine, and data represent the mean±STD. Statistical analysis was performed with the Student's t test (*p<0.05, **p<0.01).
FIG. 12F is a bar chart showing serum glycerol levels in vehicle or fexaramine-treated mice. Isoproterenol (1 μg/kg) was injected at 0 minutes and free glycerol levels were measured at the indicated time points. Data represent the mean±STD. Statistical analysis was performed with the Student's t test (*p<0.05, **p<0.01).
Mice fed a HFD for 14 weeks were maintained on a HFD and treated with vehicle or fexaramine (100 mg/kg/day os for 5 week). (I) Changes in genes associated with the browning of adipose tissue and (J) oxygen consumption rate of the stromal vascular fraction (SVF) from inguinal fat (iWAT). Data represent the mean±SD. Statistical analysis was performed with the Student's t test. *p<0.05, **p<0.01.
FIG. 13 is a set of digital images of gel electrophoreses (Western blots) showing the level of expression of various proteins in gonadal white adipose tissue (gWAT). Mice fed a HFD for 14 weeks were maintained on a HFD and treated with vehicle or fexaramine (50 mg or 100 mg/kg/day os for 5 week).
FIG. 14 is a bar chart showing that fexaramine reduces brown adipose tissue (BAT) inflammation. Mice fed a HFD for 14 weeks were maintained on a HFD and treated with vehicle or fexaramine (100 mg/kg/day os for 5 weeks). Expression of inflammatory cytokines in BAT. Data represent the mean±SD. Statistical analysis was performed with the Student's t test. *p<0.05, **p<0.01.
During obesity, adipose tissue expands by hyperplastic and/or hypertrophic growth, is chronically inflamed, and produces inflammatory cytokines that ultimately contribute to systemic metabolic dysregulation. […] These noncanonical IκB kinases were recently shown to play crucial roles in energy expenditure as a consequence of adipose tissue inflammation upon diet-induced obesity (Reilly et al., Nat Med 19:313-321, 2013).
Brown adipose-driven adaptive thermogenesis is fueled by mitochondrial oxidation of free fatty acids (FFAs) released from triglyceride stores into the circulation, predominantly by the action of hormone-sensitive lipase (HSL).

[3] = PO, 100 mg/kg, listed as fexaramine
[4] = DIO mice, chronic Fex treatment

Compound: COC(=O)/C=C/c1cccc(N(Cc2ccc(-c3ccc(N(C)C)cc3)cc2)C(=O)C2CCCCC2)c1 [Fex, fexaramine]
- induction of FXR target gene SHP in intestine ([1]; IP, 100 mg/kg for five days): robust induction
- FXR target gene expression in liver, kidney and intestines ([1]; IP, 100 mg/kg, five days): increases FXR target gene expression in the liver and kidney, in addition to the intestines
- induction of SHP in liver and kidney ([1]; PO versus IP, 100 mg/kg for five days): only seen in liver and kidney after IP treatment
- FXR target gene expression (IBABP, OSTα, FGF15) in intestine ([1]; PO, 100 mg/kg): induced multiple FXR target genes in the intestine
- FXR target gene expression in liver or kidney ([1]; PO, 100 mg/kg): failed to affect the expression of these genes in liver or kidney
- induction of FXR target gene SHP in intestine ([1]; PO, 100 mg/kg for five days): robust induction
- FXR target gene expression (IBABP, OSTα, FGF15) in intestine [1, 3]: substantially enhances FXR target gene expression in the intestine
- FXR target gene expression in liver or kidney [1, 3]: not in the liver or kidney
- lipid droplets in liver (histology, hepatic steatosis) (DIO mice; DIO mice, 100 mg/kg PO 5 weeks): reduction in lipid droplets
- serum alanine aminotransferase (ALT) levels (DIO mice; DIO mice, 100 mg/kg PO 5 weeks): decreased
- hepatic expression of gluconeogenic and lipogenic genes (DIO mice; [4]): reduced hepatic expression
- hepatic triglycerides (DIO mice; [4]): marked decrease
- insulin-mediated suppression of HGP (DIO mice; hyperinsulinemic-euglycemic clamp, versus control DIO mice): marked increase
- basal HGP, GDR, IS-GDR, FFA suppression and fasting insulin levels (DIO mice; weight-matched cohorts, hyperinsulinemic-euglycemic clamp): No differences
- Fex-induced changes in gene expression and improvements in metabolic homeostasis (FXR-null mice): abrogated
- abundance of multi-locular, UCP1-expressing adipocytes in inguinal adipose tissue (immunohistochemistry) ([2]; 100 mg/kg PO 5 weeks): substantial increase
- expression of TNFα, MCP-1, IL-1α and macrophage marker F4/80 in visceral and brown adipose depots ([2]; 100 mg/kg PO 5 weeks): reduced in visceral and brown adipose depots
- expression of "brown fat-like" signature genes in inguinal adipose tissue ([2]; 100 mg/kg/day 5 week): increased the expression
- respiratory capacity (oxygen consumption rate) of stromal vascular fraction from inguinal adipose tissue ([2]; 100 mg/kg/day 5 week): increased respiratory capacity
- S6K phosphorylation (mTORC1 pathway) in gonadal WAT ([2]; Western blot): reduced S6K phosphorylation
- levels of IKK-ε and TANK-binding kinase 1 (TBK1) in gWAT ([2]; Western blot): reduced levels
- HSL phosphorylation in adipose depots ([2]; chronic Fex treatment): pronounced increase
- serum catecholamine levels ([2]; chronic Fex treatment): increased serum catecholamine levels
- serum levels of free fatty acids ([2]; chronic Fex treatment): pronounced increase
- β3-adrenergic receptor expression in gonadal adipose tissue ([2]; chronic Fex treatment): increased
- cross-sectional area of adipocytes in visceral depots (gonadal and mesenteric) ([2]; chronic Fex-treatment): markedly reduced
